Results published in patent US9901592B2 (priority 2008, dated 2018).
Converted amounts (≈) assume the structure as drawn. Where two headings read alike, the source gives them in different places.

Tests used:
S. pneumoniae [1] = experiment: microbe, parasite or virus in culture; format: cell-based; settings: for MIC: Streptococcus pneumoniae
S. pneumoniae [2] = experiment: mouse systemic infection model (PD50); format: in vivo
S. pneumoniae [3] = experiment: mouse subcutaneous abscess model; format: in vivo; settings: for average log10 CFU/gram of abscess: S. pneumoniae 1629, 10 mg/Kg PO
Protocol: Example. Efficacy was evaluated in several infection models. […] PD50s were determined 24 hr post infection. CEM-101 was further evaluated in a subcutaneous abscess mouse model against S. pneumoniae. CD-1 female mice were infected via SC injection of bacteria mixed with cyclodextran beads. Two hr post infection, mice received a single oral dose of CEM 101 or control agents. At 48 hr post dose, mice were euthanized, abscesses aseptically removed and bacteria enumerated. CFU per abscess was determined and compared to the untreated control. […] 24 hr post treatment, the thighs were processed and CFU/gram of thigh determined.
Example. Mouse Subcutaneous Abscess. Bacteria were prepared from an overnight plate culture by re-suspending in saline and adjusting the suspension to a 0.1 OD at 625 nm of a 1:10 dilution. The adjusted bacterial suspension was mixed 1:2 with cyclodextran beads prepared as per package instructions. The right flanks of the mice were shaven and injected subcutaneously with 0.2 ml of the bacterial inoculum. Two hours post infection mice were treated via oral gavage with either test article or control drug. 48 hours post infection, mice were euthanized, abscesses aseptically removed, homogenized, serially diluted and plated on bacterial growth agar. After overnight incubation, colonies were counted and CFUs/gram of abscess were determined.
Example. The ability of CEM101 to reduce the microbial load in abscess infection model was also assessed against S. pneumoniae isolates.

SMILES: CC[C@H]1OC(=O)[C@H](C)[C@@H](O[C@H]2C[C@@](C)(OC)[C@@H](O)[C@H](C)O2)[C@H](C)[C@@H](O[C@@H]2O[C@H](C)C[C@H](N(C)C)[C@H]2O)[C@](C)(OC)C[C@@H](C)C(=O)[C@H](C)[C@@H](O)[C@]1(C)O [CLR, clarithromycin]
- strains with resistant clones / strains tested (S. pneumoniae [1]; S. pneumoniae): 5/6
- Parental MICs (S. pneumoniae [1]; S. pneumoniae, 8 strains with varying resistotypes): 0.016 to 16 µg/mL
- MIC (S. pneumoniae [1]; read-out: Initial MIC, strain 24 Macrolide-R [erm(B)], parent): > 64 µg/mL
- MIC (S. pneumoniae [1]; read-out: Initial MIC, strain 1076 Macrolide-R [erm(B)&mef(A)], parent): > 64 µg/mL
- MIC (S. pneumoniae [1]; read-out: Initial MIC, strain 1077 Macrolide-S, parent): 0.016 µg/mL (≈ 0.0214 µM)
- MIC (S. pneumoniae [1]; read-out: Initial MIC, strain 1635 Macrolide-R [erm(A)], parent): 0.5 µg/mL (≈ 0.668 µM)
- MIC (S. pneumoniae [1]; read-out: Initial MIC, strain 2686 Macrolide-R [L4 mutation], parent): 8 µg/mL (≈ 10.7 µM)
- MIC (S. pneumoniae [1]; read-out: Initial MIC, strain 3009 Macrolide-R [23SrRNA mutation], parent): 16 µg/mL (≈ 21.4 µM)
- MIC (S. pneumoniae [1]; read-out: Initial MIC, strain 3665 Macrolide-R [mef(A)], parent): 2 µg/mL (≈ 2.67 µM)
- MIC (S. pneumoniae [1]; read-out: Initial MIC, strain 7127 Macrolide-S [S20N in L4, A105V in L22], parent): 0.03 µg/mL (≈ 0.0401 µM)
- MIC (S. pneumoniae [1]; read-out: MIC of parents of resistant clones, S. pneumoniae (CEM-101: 7 strains)): 0.03 to 16 µg/mL
- MIC (S. pneumoniae [1]; read-out: Selected Resistance MIC, strain 1077 Macrolide-S, after serial passages in the drug): 0.008 µg/mL (≈ 0.0107 µM)
- MIC (S. pneumoniae [1]; read-out: Selected Resistance MIC, strain 1635 Macrolide-R [erm(A)], after serial passages in the drug): > 64 µg/mL
- MIC (S. pneumoniae [1]; read-out: Selected Resistance MIC, strain 2686 Macrolide-R [L4 mutation], after serial passages in the drug): > 64 µg/mL
- MIC (S. pneumoniae [1]; read-out: Selected Resistance MIC, strain 3009 Macrolide-R [23SrRNA mutation], after serial passages in the drug): > 64 µg/mL
- MIC (S. pneumoniae [1]; read-out: Selected Resistance MIC, strain 3665 Macrolide-R [mef(A)], after serial passages in the drug): 16 µg/mL (≈ 21.4 µM)
- MIC (S. pneumoniae [1]; read-out: Selected Resistance MIC, strain 7127 Macrolide-S [S20N in L4, A105V in L22], after serial passages in the drug): 16 µg/mL (≈ 21.4 µM)
- days until resistant clones (MIC increase) (S. pneumoniae [1]; daily passages, min. 14, max. 50): 14 to 49 days
- Retest MIC after 10 Antibiotic-free Subcultures (S. pneumoniae [1]; strain 24 Macrolide-R [erm(B)], clone selected with CEM-101): >64 µg/mL
- Retest MIC after 10 Antibiotic-free Subcultures (S. pneumoniae [1]; strain 24 Macrolide-R [erm(B)], clone selected with TEL): >64 µg/mL
- Retest MIC after 10 Antibiotic-free Subcultures (S. pneumoniae [1]; strain 1076 Macrolide-R [erm(B)&mef(A)], clone selected with CEM-101): >64 µg/mL
- Retest MIC after 10 Antibiotic-free Subcultures (S. pneumoniae [1]; strain 1076 Macrolide-R [erm(B)&mef(A)], clone selected with TEL): >64 µg/mL
- Retest MIC after 10 Antibiotic-free Subcultures (S. pneumoniae [1]; strain 1077 Macrolide-S, clone selected with AZI): >64 µg/mL
- Retest MIC after 10 Antibiotic-free Subcultures (S. pneumoniae [1]; strain 1077 Macrolide-S, clone selected with CEM-101): 0.06 µg/mL
- Retest MIC after 10 Antibiotic-free Subcultures (S. pneumoniae [1]; strain 1077 Macrolide-S, clone selected with CLN): >64 µg/mL
- Retest MIC after 10 Antibiotic-free Subcultures (S. pneumoniae [1]; strain 1077 Macrolide-S, clone selected with TEL): >64 µg/mL
- Retest MIC after 10 Antibiotic-free Subcultures (S. pneumoniae [1]; strain 1635 Macrolide-R [erm(A)], clone selected with AZI): >64 µg/mL
- Retest MIC after 10 Antibiotic-free Subcultures (S. pneumoniae [1]; strain 1635 Macrolide-R [erm(A)], clone selected with CEM-101): 1 µg/mL
- Retest MIC after 10 Antibiotic-free Subcultures (S. pneumoniae [1]; strain 1635 Macrolide-R [erm(A)], clone selected with CLN): 0.5 µg/mL
- Retest MIC after 10 Antibiotic-free Subcultures (S. pneumoniae [1]; strain 1635 Macrolide-R [erm(A)], clone selected with CLR): >64 µg/mL
- Retest MIC after 10 Antibiotic-free Subcultures (S. pneumoniae [1]; strain 2686 Macrolide-R [L4 mutation], clone selected with CEM-101): 32 µg/mL
- Retest MIC after 10 Antibiotic-free Subcultures (S. pneumoniae [1]; strain 2686 Macrolide-R [L4 mutation], clone selected with CLR): >64 µg/mL
- Retest MIC after 10 Antibiotic-free Subcultures (S. pneumoniae [1]; strain 2686 Macrolide-R [L4 mutation], clone selected with TEL): 16 µg/mL
- Retest MIC after 10 Antibiotic-free Subcultures (S. pneumoniae [1]; strain 3009 Macrolide-R [23SrRNA mutation], clone selected with CEM-101): >64 µg/mL
- Retest MIC after 10 Antibiotic-free Subcultures (S. pneumoniae [1]; strain 3009 Macrolide-R [23SrRNA mutation], clone selected with CLR): 64 µg/mL
- Retest MIC after 10 Antibiotic-free Subcultures (S. pneumoniae [1]; strain 3665 Macrolide-R [mef(A)], clone selected with CEM-101): 4 µg/mL
- Retest MIC after 10 Antibiotic-free Subcultures (S. pneumoniae [1]; strain 3665 Macrolide-R [mef(A)], clone selected with CLR): 8 µg/mL
- Retest MIC after 10 Antibiotic-free Subcultures (S. pneumoniae [1]; strain 3665 Macrolide-R [mef(A)], clone selected with TEL): 2 µg/mL
- Retest MIC after 10 Antibiotic-free Subcultures (S. pneumoniae [1]; strain 7127 Macrolide-S [S20N in L4, A105V in L22], clone selected with AZI): 0.5 µg/mL
- Retest MIC after 10 Antibiotic-free Subcultures (S. pneumoniae [1]; strain 7127 Macrolide-S [S20N in L4, A105V in L22], clone selected with CEM-101): 0.125 µg/mL
- Retest MIC after 10 Antibiotic-free Subcultures (S. pneumoniae [1]; strain 7127 Macrolide-S [S20N in L4, A105V in L22], clone selected with CLN): 0.016 µg/mL
- Retest MIC after 10 Antibiotic-free Subcultures (S. pneumoniae [1]; strain 7127 Macrolide-S [S20N in L4, A105V in L22], clone selected with CLR): 16 µg/mL
- Retest MIC after 10 Antibiotic-free Subcultures (S. pneumoniae [1]; strain 7127 Macrolide-S [S20N in L4, A105V in L22], clone selected with TEL): 0.06 µg/mL
- PD50 (S. pneumoniae [2]; S. pneumoniae (macrolide susceptible)): 32.1 mg/kg
- PD50 (S. pneumoniae [2]; S. pneumoniae (mefR)): >30 mg/kg
- PD50 (S. pneumoniae [2]; S. pneumoniae serotype 19A): 5.03 mg/kg
- average log10 CFU/gram of abscess (S. pneumoniae [3]; 24 hours): ~5.5 log10 CFU/gram
- average log10 CFU/gram of abscess (S. pneumoniae [3]; 48 hours): ~5.5 log10 CFU/gram
- log decrease of CFU from untreated mice (S. pneumoniae [3]; abscess, 10 mg/Kg QD dose): 1.5 log10
